From a melting point compilation (Tetko et al.; mined from patent text by program, amines drawn as free bases though some values may be those of a salt)

| SMILES | melting point |
| --- | --- |
| CCCCc1nc2cnc3cccnc3c2n1CCCCNC(=O)OC(C)(C)C | 96 to 98 °C |
| NS(=O)(=O)c1nc(-c2cccc(Cl)c2)ns1 | 182 to 184 °C |
| CCOC(=O)C1CCCN1C(=O)c1cc2c(cc1[N+](=O)[O-])OCO2 (stereo not given) | 94 °C |
| Nc1ccc(Oc2ccc3cccnc3c2)cc1 | 131 °C |
| O=C(O)c1ccc(CF)cc1 | 192 to 194 °C |
| COC(=O)Nc1cn2nc(OCc3cc(OC)c(OC)c(OC)c3Br)ccc2n1 | 218 to 219 °C |
| CCOCc1nc2c(N)nc3cccnc3c2n1CC(C)(C)NC(=O)NC(C)C | 172 to 174 °C |
| Cc1nc(Cn2c(=O)sc3cc(F)ccc32)no1 | 142 to 144 °C |
| CC(C)(C)OC(=O)N1CCC(c2cc(C(F)(F)F)ccc2N)CC1 | 120 °C |
| Clc1c(OCCN2CCCCC2)ccc2cc3ccc(OCCN4CCCCC4)c(Cl)c3nc12 | 173 to 174 °C |
| COc1cc(C(C)C)c2c(c1)S(=O)(=O)N(COC(=O)c1c(C)ccnc1C)C2=O | 132 to 134 °C |
| COCOc1ccc(C(CS(=O)(=O)c2ccc(-c3ccc(C(F)(F)F)cc3)cc2)N(O)C=O)cc1 (stereo not given) | 137 to 138 °C |
| O=C1NC(=O)N(Cc2ccccc2)C(=O)C1Cc1ccccc1 (stereo not given) | 107 to 109 °C |
| CCCCCCCCCCCCCCCC(=O)OCCN(C)C | 46 to 48 °C |
| COc1cccc(C#Cc2nc(C)ccc2N)c1 | 165 to 166 °C |
| CCOc1ccc(C=CCCCCC(=O)O)cc1 | 62 to 63 °C |
| Cn1cnc2nc(-c3ccc(Br)cc3)nn2c1=S | > 300 °C |
| CC1(C)C=C(C(O)CN)c2ccccc21 (stereo not given) | 93 °C |
| O=C(CCCCCNC(=O)c1ccco1)NO | 114 to 115 °C |
| COc1cc(C)c(S(=O)(=O)NC(=S)Nc2nc(-c3ccc(C4CCCCC4)cc3)c(C)s2)c(C)c1 | 177 to 178 °C |
| N#Cc1cccc(Cc2ccccc2C=NC(c2ccccc2)c2ccccc2)c1 | 113 to 115 °C |
| CC(C)Oc1ncc(OC(=O)C2(C)CC2)cc1Cl | 116 to 117 °C |

| SMILES | melting point |
| --- | --- |
| O=C(O)c1ccc(F)cc1NC(=O)C(F)(F)F | 166 to 168 °C |
| CCOC(=O)CNC(=O)NCCCSc1nccc(NC(N)=NCC(F)(F)F)n1 | 165 to 166 °C |
| CSc1c(-n2ccnc2)c(-c2ccc(Cl)c(Cl)c2)nn1C | 88 to 90 °C |
| O=c1ccoc2c3c(ccc12)OCC(CO)O3 (stereo not given) | 125 °C |
| CC(C)(CO[N+](=O)[O-])C(=O)N1C(C(=O)O)CSC1c1ccccc1 (stereo not given) | 35 to 38 °C |
| CCCCCCCCCCCCCCc1ccc(C(=O)CCCCC)c(O)c1 | 44 to 45 °C |
| Cc1cncc(C)c1-c1c(C)cc(I)cc1C | 242 to 243 °C |
| CCN1C(=O)CN(C(=O)C(F)(F)F)Cc2cc(OC)c([N+](=O)[O-])cc21 | 128 to 129 °C |
| Ic1cccc2c(SSc3cccc4c(I)cccc34)cccc12 | 202 to 203 °C |
| Nc1ccc2c(c1)CC(N)CC2 (single isomer, unassigned; (+)) | 33 to 34 °C |
| CCCCN1CC(=O)C(C(=O)OCC)C1=O (stereo not given) | 121 to 123 °C |
| CCC(=O)c1c(C(=O)C(C)C)c2ccc(C(N)=O)cc2n1Cc1ccccc1Cl | 145 to 147 °C |
| CCCCCCCCCCOCCCCCCCSCCCO | 28 to 32 °C |
| C#CCNC(=O)C(C#N)C(=O)C1CC1 (stereo not given) | 128 to 129 °C |
| CCN(CC)C(=O)SC1(C(=O)N(CC)CC)C=CC=NC1F (stereo not given) | 87 to 88 °C |
| CN1C(=O)C(C)(C)N=C(c2ccccc2F)c2c1cc(Br)c(N)c2Br | 202 °C |
| CCCCC(=O)N(Cc1ccc(-c2ccccc2-c2nnnn2C(c2ccccc2)(c2ccccc2)c2ccccc2)cc1)C(C(=O)O)C(C)C (stereo not given) | 170 °C |
| O=C(c1ccc(C#Cc2ccccc2)cc1)c1ccc(Oc2ccccc2)cc1 | 166 °C |
| CCCCCNC(=O)c1cnc(N2CCN(C(=O)c3ccccc3C(F)(F)F)CC2)s1 | 92 to 94 °C |
| O=C(Cc1cccnc1)c1ccc2c(c1)CCC2 | 55 to 56 °C |
| Cc1cc(C)c(CC(=O)O)cc1C | 123 to 125 °C |

Next, values leading:

| melting point | SMILES |
| --- | --- |
| 202 to 203 °C | COc1ccccc1Oc1coc(C(=O)O)cc1=O |
| 259 to 260 °C | CC(=O)NCC1CN(c2ccc(C(=O)c3cnc4n3CCS4)cc2)C(=O)O1 (stereo not given) |
| 83 to 85 °C | CCCc1ccc(S(=O)(=O)c2ccccc2)cc1 |
| 205 °C | O=C(O)Cc1nn(-c2nc3ccccc3s2)c(=O)c2ccccc12 |
| > 250 °C | O=c1[nH]c(-c2cccc(Oc3ccc4c(c3)S(=O)(=O)N=C3CCCN34)c2)no1 |
| 237 to 239 °C | CCOC(=O)c1[nH]c2cc(C(F)(F)F)ccc2c1NCC(=O)c1ccccc1 |
| 200 to 202 °C | O=C(Nc1ccc([N+](=O)[O-])cc1)c1ccccc1Br |
| 126 to 130 °C | CN(Cc1ccc(OC(=O)Cc2ccccc2Nc2c(Cl)cccc2Cl)cc1)CC(C)(C)SN=O |
| 244 to 245 °C | O=C(O)c1cccc(-c2cccc(Oc3ccc(Cl)cc3Cl)n2)c1 |
| 166 to 168 °C | CCOc1ccccc1C(=O)Nc1cccc(C)c1C(N)=O |
| 227 °C | Cc1nccn1-c1cccc(C2=Nc3ccc(-c4ccc(F)cc4)cc3NC(=O)C2)c1 |
| 85 °C | CC(=O)CC(C)c1ccc(-c2ccccc2)c(F)c1 (stereo not given) |
| 153 to 155 °C | N#Cc1cccc2c1nc(-c1c(F)cccc1F)n2Cc1c(F)cccc1F |
| 177 to 178 °C | Cc1ccc(Sc2cccc(-c3nc(=O)c4ccccc4s3)n2)cc1 |
| 284 to 286 °C | COC(=O)c1c(Cl)ccc2[nH]c(Sc3cccc4c(S(C)(=O)=O)c[nH]c34)nc12 |
| 134 °C | CCOC(=O)c1nn(-c2ccc(OC(F)F)cc2)c2cccc(Cl)c2c1=O |
| 110 to 114 °C | CN(C)CCOC(c1ccccc1)c1ccc(C(=O)NCCCCn2cnc3c(N)nc4ccccc4c32)cc1 (stereo not given) |
| 135 °C | CC(C)NC(=S)n1ccc2cc(Cl)ccc21 |
| 196 to 198 °C | COC(=O)C(Cc1ccc(OCc2ccccc2)cc1)NC(=O)c1cc2ccc(-c3ccc(Cl)cc3)cc2[nH]1 (stereo not given) |

| melting point | SMILES |
| --- | --- |
| 72.3 to 72.8 °C | CCOC(=O)CC(c1cccnc1)N1C(=O)c2ccccc2C1=O (stereo not given) |
| 231 to 234 °C | O=C(Nc1ccc(C(=O)N2Cc3cccn3Cc3ccccc32)cc1)c1cc(Cl)cc(Cl)c1Cl |
| < 50 °C | O=[N+]([O-])c1ccccc1OCc1ccccc1 |
| 117 °C | Cc1ccccc1CCC(C)(C)NC(=O)n1nc(N(C)C)n(N)c1=O |
| 253 to 255 °C | COc1cc(OC)c2c(=O)cc(-c3n[nH]c4ccccc34)oc2c1 |
| 140 °C | COc1ccc(CN(C)CCOc2ccc(NC(=O)c3cccc4c(=O)c5ccccc5[nH]c34)cc2)cc1OC |
| 156 to 158 °C | COc1ccc2c(c1)Sc1cc(OC(C)=O)c3ccccc3c1N2 |
| > 250 °C | CS(=O)(=O)Nc1cc2occ(C(=O)O)c(=O)c2cc1Oc1ccccc1 |
| 130 to 132 °C | Cc1ccc(OCCC(C(=O)O)c2ccccc2)c2ccccc12 (stereo not given) |
| 111 to 115 °C | CCOc1ccccc1C(C)CC(=O)Nc1sc2c(c1C#N)CCNC2 (racemic) |
| 130 to 135 °C | OCc1cn(-c2ccc(F)c(Cl)c2)cn1 |
| 115 to 121 °C | CCCn1cc(Cc2ccc(C(=O)NS(=O)(=O)c3ccccc3C)cc2OC)c2cc(CCNC(=O)N(C)C)ccc21 |
| 179 to 180 °C | CCn1ncc2c(NCc3ccc(OC)cc3)c3ccccc3nc21 |
| 192 to 194 °C | COC(=O)c1cn(C(c2ccccc2)(c2ccccc2)c2ccccc2)c(I)n1 |
| 83 to 85 °C | C=CCOc1cccc(-c2cn3ccc4ccccc4c3n2)c1 |
| 172 to 173 °C | O=C(O)C=CSc1c[nH]c2ccccc12 |
| 171 to 173 °C | Cc1nn(-c2ccccn2)c2[nH]c3ccc(N(C)C)cc3c(=O)c12 |
| 104 to 106 °C | COC(=O)[C@H](c1ccccc1Cl)N1CCc2sc(OC(=O)COc3ccccc3)cc2C1 |
| 215 °C | CC(C(=O)Nc1ccccc1)n1nc(O)c2[nH]c3cc(Cl)ccc3c(=O)c2c1=O (stereo not given) |

| melting point | SMILES |
| --- | --- |
| 197 to 198 °C | Oc1cc(-c2ccc(F)cc2)nc(-c2ccccn2)n1 |
| 160 to 161 °C | COc1ccc(C(Sc2ccc3ccccc3c2N)C(O)C(=O)O)cc1 (stereo not given) |
| 172 to 174 °C | CC(C)(C)CNCc1nc(-c2ccc3c(c2)Nc2ccccc2S3)cs1 |
| 75 to 78 °C | CCCCc1oc2ccc(C(=O)OC)cc2c1C(=O)c1ccc(OC)cc1 |
| 277 to 278 °C | COc1ccc2c(Cl)cc3nc(C(=O)O)cn3c2c1 |
| 104 to 105 °C | COC(=O)C(=Cc1ccc(OCCc2nc(-c3ccccc3)oc2C)cc1)C(=O)OC |
| 172 °C | C=C(F)C[C@@H](C(=O)O)N(Cc1cccnc1)S(=O)(=O)c1ccc(OC)cc1 |
| 140 to 141 °C | O=C(NCCO)c1cccc(-c2cccc3cc(Cc4cccc(C(F)(F)F)c4)oc23)c1 |
| 58 to 60 °C | CC(=O)c1ccc2c(c1)CCc1ccccc1-2 |
| 187 to 188 °C | CS(=O)(=O)c1ccc(-c2cnn(-c3ccc(F)c(F)c3)c(=O)c2-c2ccc(Cl)cc2)cc1 |
| 128 to 129 °C | Cc1c(SCCCSc2nc3ccccc3[nH]2)ccnc1CSc1ccncc1 |
| 110 to 112 °C | O=[N+]([O-])c1c(Br)nn(Cc2ccccc2)c1NCCO |
| 245 to 246 °C | Cc1c(S(=O)c2cc(Cl)c(Cl)cc2Cl)cc(C(C)(C)C)c(O)c1C(=O)Nc1ccc([N+](=O)[O-])cc1Cl (stereo not given) |
| 125 to 126 °C | COC1=C(OC)C(=O)c2cc(Cl)ccc2C1=O |
| 256 to 257 °C | Cn1cnc(S(=O)(=O)N2CCC3(CC2)CSC2=C(O3)c3ccccc3C(=O)C2=O)c1 |
| 75 °C | O=C(CC1=CC(OC2CCCCO2)CC1=O)Oc1ccc2ccccc2c1 (stereo not given) |
| 108 °C | O=S(=O)(C=Cc1ccc(F)cc1)Oc1ccccc1 |
| 218 °C | CC(C)(C)OC(=O)N1CCC(OCc2ccccc2)C1CC(=O)Cn1cnc2cccc(C(F)(F)F)c2c1=O (stereo not given) |
| > 250 °C | Cc1ccc2c(N3CCN(C)C3=O)ccnc2c1NC(=O)c1c(Cl)cccc1Cl |
